Holding throughout (type): in vivo
The subject of test [1] is VERPE: bird's-eye speedwell (veronica persica). Briefly: Post-emergent Test III, herbicidal activity in wheat and barley. The following applies: for pest or weed control at 35 g/ha / pest or weed control at 70 g/ha / pest or weed control at 140 g/ha: Veronica persica, post-emergence, 504 h, read-out: Visual Growth Reduction (%) 21 Days After Application VERPE; for pest or weed control at 35 g/ha: 35 g ai/ha; for pest or weed control at 70 g/ha: 70 g ai/ha; for pest or weed control at 140 g/ha: 140 g ai/ha; for GR50 VERPE / GR80 VERPE: probit analysis. A digest of the protocol:
(§1)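 GR20, GR50, GR80 and GR90 come from probit analysis of visual injury scores (0 = none, 100 = complete kill) taken 21 d after treatment. Foliar application was by track sprayer delivering 187 L/ha at five rates, from high down to 1/16×, onto greenhouse plants at the 2–3 leaf stage, with solvent-blank controls.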

The test system of test [2] is LAMSS. The description is as above. The settings on record: for pest or weed control at 35 g/ha / pest or weed control at 70 g/ha / pest or weed control at 140 g/ha: post-emergence, 504 h, read-out: Visual Growth Reduction (%) 21 Days After Application LAMSS; for pest or weed control at 35 g/ha: 35 g ai/ha; for pest or weed control at 70 g/ha: 70 g ai/ha; for pest or weed control at 140 g/ha: 140 g ai/ha; for GR50 LAMSS / GR80 LAMSS: probit analysis. A digest of the protocol:
as §1

The subject of test [3] is ALOMY: black-grass (Alopecurus myosuroides). The test is described as above. The following applies: for pest or weed control at 35 g/ha / pest or weed control at 70 g/ha / pest or weed control at 140 g/ha: Alopecurus myosuroides, post-emergence, 504 h, read-out: Visual Growth Reduction (%) 21 Days After Application ALOMY; for pest or weed control at 35 g/ha: 35 g ai/ha; for pest or weed control at 70 g/ha: 70 g ai/ha; for pest or weed control at 140 g/ha: 140 g ai/ha; for GR50 ALOMY / GR80 ALOMY: probit analysis, 21 days after application; for GR50 ALOMY: dose for growth reduction of 50 percent; for GR80 ALOMY: dose for growth reduction of 80 percent. A digest of the protocol: as §1

The subject of test [4] is HELAN: sunflower (Helianthus annuus). Briefly: Pre-emergent Test I herbicidal activity. The settings on record: pre-emergence, 336 h, read-out: Visual Growth Reduction (%) 14 Days After Application, HELAN; for pest or weed control at 4000 g/ha: 4 kg ai/ha; for pest or weed control at 4040 g/ha: 4.04 kg ai/ha. A digest of the protocol: (§2)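 Read-out: visual herbicidal effect 0-100 relative to controls, 14 days after treatment, 100 meaning plant death or no emergence. Spray solution contained crop oil concentrate and 0.02% w/v Triton X-155; lower rates by serial dilution. Applied to soil after seeding, followed by water incorporation.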

Test [5] deals with AVEFA: wild oats (Avena fatua). Briefly: Pre-emergent Test I herbicidal activity. The settings on record: pre-emergence, 336 h, read-out: Visual Growth Reduction (%) 14 Days After Application, AVEFA; for pest or weed control at 4000 g/ha: 4 kg ai/ha; for pest or weed control at 4040 g/ha: 4.04 kg ai/ha. A digest of the protocol:
as §2

Test [6] relates to IPOHE: ivyleaf morningglory (Ipomoea hederecea). Briefly: Pre-emergent Test I herbicidal activity. The settings on record: pre-emergence, 336 h, read-out: Visual Growth Reduction (%) 14 Days After Application, IPOHE; for pest or weed control at 4000 g/ha: 4 kg ai/ha; for pest or weed control at 4040 g/ha: 4.04 kg ai/ha. A digest of the protocol: as §2
The test system of test [7] is AMARE: redroot pigwseed (Amaranthus retroflexus). Briefly: Pre-emergent Test I herbicidal activity. The following applies: pre-emergence, 336 h, read-out: Visual Growth Reduction (%) 14 Days After Application, AMARE; for pest or weed control at 4000 g/ha: 4 kg ai/ha; for pest or weed control at 4040 g/ha: 4.04 kg ai/ha. A digest of the protocol:
as §2

The subject of test [8] is SETFA: giant foxtail (Setaria faberi). Briefly: Pre-emergent Test I herbicidal activity. The following applies: pre-emergence, 336 h, read-out: Visual Growth Reduction (%) 14 Days After Application, SETFA; for pest or weed control at 4000 g/ha: 4 kg ai/ha; for pest or weed control at 4040 g/ha: 4.04 kg ai/ha. A digest of the protocol:
as §2

Test [9] has as its system ECHCG: barnyardgrass (Echinochloa crus-galli). Briefly: Pre-emergent Test I herbicidal activity. The settings on record: pre-emergence, 336 h, read-out: Visual Growth Reduction (%) 14 Days After Application, ECHCG; for pest or weed control at 4000 g/ha: 4 kg ai/ha; for pest or weed control at 4040 g/ha: 4.04 kg ai/ha. A digest of the protocol:
as §2

The mark [10] stands for this setting: dose for growth reduction of 50 percent, 21 days after application.
[11] abbreviates: dose for growth reduction of 80 percent, 21 days after application.
The mark [12] stands for this setting: Table 8, dose for 50 percent growth reduction, 21 d.
Where [13] appears, read: Table 8, dose for 80 percent growth reduction, 21 d.

Read-outs that look alike come from different tables or passages of the source.

This is an account of results in patent US9113629B2, “4-amino-6-(4-substituted-phenyl)-picolinates and 6-amino-2-(4-substituted-phenyl)-pyrimidine-4-carboxylates and their use as herbicides” (DOW AGROSCIENCES LLC, priority 2013, dated 2015).

As for `COC(=O)c1nc(-c2ccc(Br)c(F)c2F)cc(N)c1Cl` [Compound 114, methyl 4-amino-6-(4-bromo-2,3-difluorophenyl)-3-chloropicolinate], the pest or weed control at 35 g/ha lay within 30 to 44% in test [1], 85 to 94% in test [2] and 0 to 29% in test [3]. The values for the pest or weed control at 70 g/ha in [1], in test [2] and in test [3] were 30 to 44%, 85 to 94% and 0 to 29%, respectively. The pest or weed control at 140 g/ha in [1] was 30 to 44%; in test [2], 95 to 100%; in test [3] it was 0 to 29%. Besides, the “GR50 VERPE” value in [1] (setting [10]) is on record as over 140 g ai/ha. The “GR80 VERPE” value in test [1] (setting [11]) is over 140 g ai/ha. Moreover, in test [2] (setting [10]), the “GR50 LAMSS” value was determined as 1 g ai/ha. For the same molecule, in test [2] (setting [11]), the “GR80 LAMSS” value came to 4 g ai/ha. In addition, the “GR50 ALOMY” value in test [3] is listed as over 140 g ai/ha. Further, the “GR80 ALOMY” value in test [3] is over 140 g ai/ha. The pest or weed control at 3920 g/ha in [4] (3.92 kg ai/ha) lay within 95 to 100%; in [5] (3.92 kg ai/ha), 95 to 100%; in test [6] (3.92 kg ai/ha) it was 95 to 100%; in test [7] (3.92 kg ai/ha) it was 95 to 100%; in [8] (3.92 kg ai/ha), 85 to 94%; in test [9] (3.92 kg ai/ha) it was 75 to 84%.

Turning to `COC(=O)c1nc(-c2ccc(C(F)F)cc2)c(F)c(N)c1Cl` [Compound 209], the pest or weed control at 35 g/ha in [2] fell in the range of 85 to 94%; in test [3], 0 to 29%. For the same molecule, the pest or weed control at 70 g/ha in test [2] was 85 to 94%; in test [3], 0 to 29%. In addition, the “GR50 LAMSS” value in test [2] (setting [10]) is reported as 7 g ai/ha. Also, in [2] (setting [11]), the “GR80 LAMSS” value stood at 29 g ai/ha. The “GR50 ALOMY” value in test [3] is over 140 g ai/ha. In addition, the “GR80 ALOMY” value in test [3] is recorded as over 140 g ai/ha. In addition, the pest or weed control at 4000 g/ha in test [4], in [5], in test [6], in [7], in [8] and in test [9] was 95 to 100% throughout.

Take `Nc1c(F)c(-c2ccc(OC(F)F)cc2)nc(C(=O)O)c1Cl` [Compound 143]: the pest or weed control at 35 g/ha is 30 to 44% in [1], 85 to 94% in [2] and 0 to 29% in [3]. The figures for the pest or weed control at 70 g/ha in test [1], in test [2] and in test [3] were 45 to 59%, 85 to 94% and 60 to 74%, respectively. Moreover, the pest or weed control at 140 g/ha is 45 to 59% in test [1], 85 to 94% in [2] and 60 to 74% in test [3]. Besides, the “GR50 VERPE” value in [1] (setting [10]) is 97 g ai/ha. Besides, the “GR80 VERPE” value in [1] (setting [11]) is recorded as over 140 g ai/ha. Moreover, the “GR50 LAMSS” value in test [2] (setting [10]) is given as 1 g ai/ha. The “GR80 LAMSS” value in test [2] (setting [11]) is recorded as 1 g ai/ha. The “GR50 ALOMY” value in [3] stood at 71 g ai/ha. Moreover, the “GR80 ALOMY” value in test [3] was over 140 g ai/ha. In addition, the pest or weed control at 4000 g/ha was in the range of 95 to 100% in test [4]; 60 to 74% in test [5]; 85 to 94% in test [6]; 85 to 94% in test [7]; 95 to 100% in test [8]; 85 to 94% in [9].

Turning to `COC(=O)c1nc(-c2ccc(C#N)c(F)c2)c(F)c(N)c1Cl` [Compound 135, methyl 4-amino-3-chloro-6-(4-cyano-3-fluorophenyl)-5-fluoropicolinate], the “GR50 VERPE” value in [1] (setting [12]) turned out to be 24 g ai/ha. Besides, the “GR80 VERPE” value in test [1] (setting [13]) was found to be 78 g ai/ha. Further, the pest or weed control at 35 g/ha in [1] (Table 8, post-emergent, 21 d) lay in the range of 60 to 74%; in [2] (Table 8, post-emergent, 21 d), 75 to 84%. Moreover, the pest or weed control at 70 g/ha in [1] (Table 8, post-emergent, 21 d) was in the range of 75 to 84%; in [2] (Table 8, post-emergent, 21 d), 85 to 94%. Further, the pest or weed control at 140 g/ha in [1] (Table 8, post-emergent, 21 d) lay in the range of 85 to 94%; in test [2] (Table 8, post-emergent, 21 d), 85 to 94%. Besides, the “GR50 LAMSS” value in [2] (setting [12]) came out at 1 g ai/ha. In addition, the “GR80 LAMSS” value in test [2] (setting [13]) is 19 g ai/ha. Also, the pest or weed control at 4040 g/ha in [4] was in the range of 95 to 100%; in test [5] it was 30 to 44%; in test [6], 95 to 100%; in [7], 95 to 100%; in test [8], 30 to 44%; in test [9], 30 to 44%.

For the molecule `N#Cc1ccc(-c2nc(C(=O)O)c(Cl)c(N)c2F)cc1F` [Compound 156], the pest or weed control at 4040 g/ha fell in the range of 95 to 100% in test [4]; 75 to 84% in test [5]; 95 to 100% in [6]; 95 to 100% in [7]; 95 to 100% in [8]; 95 to 100% in test [9].
